According to US6875768B1, “Phthalamide derivatives, intermediates in the production thereof, and agricultural/horticultural insecticides and method for using the same” (Nihon Nohyako Co., Ltd., priority 1999, dated 2005):

Tests used:
[1] = tested on: diamond back moth (Plutella xylostella); type: in vivo; conditions: 1,000 ppm; Chinese cabbage seedling with eggs immersed about 30 seconds; counted six days after the immersion; 25° C.
Text: Insecticidal effect on diamond back moth (Plutella xylostella)
Adult diamond back moths were released and allowed to oviposit on a Chinese cabbage seedling. […] Six days after the immersion, the hatched insects were counted. […] [formula] Criterion • A - - - Mortality 100% • B - - - Mortality 99-90% • C - - - Mortality 89-80% • D - - - Mortality 79-50%

[2] = tested on: Common cutworm (Spodoptera litura); type: in vivo; conditions: 500 ppm; cabbage leaf immersed about 30 seconds; second-instar larvae; eight days after the inoculation; 25° C.
Text: Insecticidal Effect on Common cutworm (Spodoptera litura)

[3] = tested on: rice leafroller (Cnaphalocrosis medinalis); conditions: 500 ppm; rice lamina immersed about 30 seconds; third-instar larvae; four days after the inoculation; 25° C., humidity 70%
Protocol: Insecticidal effect on rice leafroller (Cnaphalocrosis medinalis)
After air-dryness, the lamina was placed in a plastic Petri dish with a diameter of 9 cm whose bottom had been covered with a wetted filter paper. The lamina was inoculated with third-instar larvae of rice leafroller, after which the dish was allowed to stand in a room thermostatted at 25° C. and having a humidity of 70%. Four days after the inoculation, the dead and alive were counted and the insecticidal effect was judged according to the criterion shown in Test Example 1. The test was carried out with triplicate groups of 10 insects.

Measured: insecticidal effect (activity ranking by mortality)

CC(C)NC(=O)c1c(Cl)cccc1C(=O)Nc1ccc(Oc2ccc(Cl)cc2Cl)nc1 [Q27-30]
B or higher: all assays above

Cc1cc(C(F)(C(F)(F)F)C(F)(F)F)ncc1NC(=O)c1cccc(I)c1C(=O)NC(C)(C)C [Q27-142]
B or higher: all assays above

Cc1cc(Cl)ncc1NC(=O)c1c(Cl)cccc1C(=O)NC(C)C [Q27-128]
B or higher: all assays above

CCN(CC)C(=O)c1c(I)cccc1C(=O)Nc1ccc(C(F)(F)C(F)(F)C(F)(F)F)nc1Cl [Q27-129]
B or higher: all assays above

Cc1nc(C(F)(C(F)(F)F)C(F)(F)F)ccc1NC(=O)c1cccc(I)c1C(=O)NC(C)(C)C [Q27-143]
B or higher: all assays above

CC(C)NC(=O)c1c(I)cccc1C(=O)Nc1ccc(C(F)(F)C(F)(F)F)nc1 [Q27-134]
B or higher: all assays above

CC(C)NC(=O)c1c(Cl)cccc1C(=O)Nc1ccc(Oc2ccc(Br)cc2)nc1 [Q27-29]
B or higher: all assays above

Cc1nc(C(F)(C(F)(F)F)C(F)(F)F)ccc1NC(=O)c1cccc(I)c1C(=O)NC(C)C [Q27-138]
B or higher: all assays above

CCN(CC)C(=O)c1c(I)cccc1C(=O)Nc1ncc(C(F)(F)C(F)(F)C(F)(F)F)cc1C [Q26-30]
B or higher: all assays above

CC(C)NC(=O)c1c(I)cccc1C(=O)Nc1ccc(C(F)(C(F)(F)F)C(F)(F)F)nc1 [Q27-136]
B or higher: all assays above

CC(C)NC(=O)c1c(Cl)cccc1C(=O)Nc1cnccc1SC(C)C [Q27-31]
B or higher: all assays above

CC(C)NC(=O)c1cccc(Cl)c1C(=O)Nc1ccc(Oc2ccc(Br)cc2)nc1 [Q27-124]
B or higher: all assays above

CC(C)NC(=O)c1c(I)cccc1C(=O)Nc1ccc(Cl)nc1 [Q27-133]
B or higher: all assays above

CSCC(C)NC(=O)c1c(I)cccc1C(=O)Nc1cnc(C(F)(C(F)(F)F)C(F)(F)F)cc1C (stereo not drawn) [Q27-144, N^1-(4-methyl-2-heptafluoroisopropyl-pyridin-5-yl)-N^2-(1-methyl-2-methylthioethyl),-3-iodophthalamide]
B or higher: all assays above

CC(C)(C)NC(=O)c1c(I)cccc1C(=O)Nc1ccc(C(F)(F)C(F)(F)F)nc1 [Q27-140]
B or higher: all assays above

Cc1cc(Cl)ncc1NC(=O)c1cccc(Cl)c1C(=O)NC(C)C [Q27-81]
B or higher: all assays above

CCN(CC)C(=O)c1c(I)cccc1C(=O)Nc1ncc(C(F)(C(F)(F)F)C(F)(F)F)cc1C [Q26-31]
B or higher: all assays above

CCN(CC)C(=O)c1c(I)cccc1C(=O)Nc1ccc(Cl)cn1 [Q26-32]
B or higher: all assays above

Cc1cc(Oc2ccc(Br)cc2)ncc1NC(=O)c1cccc(Cl)c1C(=O)NC(C)C [Q27-98]
B or higher: all assays above
